# Source: patent US20250305004A1, “ENHANCING GENE TARGETING EFFICIENCY IN HUMAN CELLS WITH DNA-PK INHIBITOR TREATMENT” (The Board of Trustees of the Leland Stanford Junior …, priority 2022, published 2025)
# Key:
# [1] = test system: LT-HSC and MPP populations; assay: Gene targeting at CCR5 locus in FACS sorted LT-HSC and MPP; format: cell-based, human; settings: flow cytometry for GFP; 0.5 μM
# [2] = test system: CCR5 locus in B cells; assay: RNP/AAV6 gene targeting at CCR5 locus in B cells; format: cell-based, human; settings: different concentrations (4, 2, 1, 0.5 and 0.1 μM); ddPCR
# Experimental: B cell culture and genome editing. […] B cells were cultured at 37° C., 5% CO2, and ambient oxygen levels.
# For genome editing, gRNA targeting CCR5 was complexed with Cas9 protein were complexed at a 2.5:1 ([…]) molar ratio at room temperature for 20 min. […] Cells were then replated at 1 million cells/ml in complete B cell activation media. […] Gene targeting was assessed at 3-days post-editing.
structure (smiles),measurement,setting,value
"Cc1cc2ncnn2cc1Nc1ncc2c(n1)n(C1CCOCC1)c(=O)n2C [AZD7648, 7-methyl-2-((7-methyl-[1,2,4]triazolo[l,5-a]pyridin-6-yl)amino)-9-(tetrahydro-2H-pyran-4-yl)-7,9-dihydro-8H-purin-8-one]",improvement of frequency of gene targeted cells,[1],more than 2.5 fold
same,enhancement of gene targeting,[2],about 2 fold
